# According to patent US20170280720A1, “ARGININE […] INHIBITORS AND USES THEREOF” (EPIZYME, INC., priority 2014, published 2017):
# Target: T1, human PRMT1 (Homo sapiens, UniProt Q99873)
# T1 construct: GST-tagged PRMT1; made in house; host or cells: High Five insect cells (baculovirus, pFastBacI)
# Experiment: PRMT1 biochemical assay (3H-SAM Flashplate, peptide substrate)
# Settings: read-out: PRMT1_ IC50
# In short: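 FLAG-tagged full-length human PRMT1 (0.5 nM, GST-tagged, insect-cell expressed) preincubated 30 min at RT with compound, then biotinylated histone H4 36-50 peptide (20 nM) plus 200 nM 3H-SAM and 1.5 uM SAM in Bicine pH 7.6, 2% DMSO. 3H-methylated peptide captured on streptavidin Flashplate; IC50 from 3/4-parameter fit.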
# T1 sequence (Q99873 with tags, fused parts or gaps): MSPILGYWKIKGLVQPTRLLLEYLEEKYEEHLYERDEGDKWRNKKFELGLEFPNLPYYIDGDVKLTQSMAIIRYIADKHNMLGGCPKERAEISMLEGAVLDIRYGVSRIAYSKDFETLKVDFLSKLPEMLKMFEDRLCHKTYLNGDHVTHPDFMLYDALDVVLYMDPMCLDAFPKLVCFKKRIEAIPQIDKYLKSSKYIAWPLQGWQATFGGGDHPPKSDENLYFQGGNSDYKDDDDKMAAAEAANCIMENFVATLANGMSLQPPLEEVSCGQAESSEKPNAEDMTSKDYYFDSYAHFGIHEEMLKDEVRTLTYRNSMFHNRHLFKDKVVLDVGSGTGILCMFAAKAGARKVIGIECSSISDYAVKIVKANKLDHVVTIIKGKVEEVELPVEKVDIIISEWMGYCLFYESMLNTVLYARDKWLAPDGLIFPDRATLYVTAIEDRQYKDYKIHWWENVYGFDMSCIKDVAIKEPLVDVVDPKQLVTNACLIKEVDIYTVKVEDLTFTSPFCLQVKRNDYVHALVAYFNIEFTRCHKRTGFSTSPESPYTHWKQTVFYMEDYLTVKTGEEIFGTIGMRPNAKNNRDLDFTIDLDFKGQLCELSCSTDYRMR
row,SMILES,IC50 [µM]
1,NCCNCc1ccc(-c2ccc3ncn(Cc4ccc(C(=O)N5CCCC5)cc4)c3c2)cc1 [Compound 104],0.531
2,CNCCN(C)Cc1cccc(-c2cc(C(=O)NCC3CCOCC3)c3cnn(C(C)C)c3n2)c1 [Compound 105],0.548
3,Cc1cccc(-n2cnc3ccc(-c4ccc(CNCCN)cc4)cc32)c1 [Compound 106],0.558
4,CNCCN(C)Cc1cccc(-c2cc(C(=O)NCCCCCC(=O)NCC3CCOCC3)c3cnn(C(C)C)c3n2)c1 [Compound 112],0.588
5,COc1ccccc1-c1nc2ccc(-c3ccc(CNCCN)cc3)cc2[nH]1 [Compound 115],0.629
6,CN(CCN)Cc1cccc(-c2nc(N(C)C3CCOCC3)c3cnn(C4CC4)c3n2)c1 [Compound 119],0.714
7,CNCCN(C)Cc1cccc(-c2cc(C(=O)NCc3cc(C)nn3C)c3cnn(C(C)C)c3n2)c1 [Compound 120],0.718
8,CNCCN(C)Cc1cccc(-c2cc(NC)c3cnn(C(C)C)c3n2)c1 [Compound 121],0.721
9,CNCCN(C)Cc1cccc(-c2cc(NC(=O)N(C)C)c3cnn(C(C)C)c3n2)c1 [Compound 123],0.766
10,CNCCN(C)Cc1cccc(-c2cc(OC)c3cnn(C(C)C)c3n2)c1 [Compound 124],0.77

# More lines, in order of falling IC50, values ahead:
row,IC50 [µM],SMILES
1,0.783,CC(C)n1ncc2c(C(=O)N[C@@H](C)c3ccccc3)cc(-c3cccc(CNCCN)c3)cc21 [Compound 125]
2,0.725,CNCCN(C)Cc1cccc(-c2cc(C(=O)NCCCCC(=O)NCc3ccn(C)n3)c3cnn(C(C)C)c3n2)c1 [Compound 122]
3,0.668,CNCCN(C)Cc1cccc(-c2cc(C(=O)NCCCCC(=O)NCC3CCOCC3)c3cnn(C(C)C)c3n2)c1 [Compound 118]
4,0.642,CNCCN(C)Cc1cccc(-c2cc(C(=O)NCCCCCC(=O)NCc3ccn(C)n3)c3cnn(C(C)C)c3n2)c1 [Compound 117]
5,0.64,CC(C)n1ncc2c(NC(=O)N(C)C)cc(-c3cccc(CN(C)CCN)c3)nc21 [Compound 116]
6,0.617,CNCCN(C)Cc1cccc(-c2nc(NC3CC3)c3cnn(C4CC4)c3n2)c1 [Compound 114]
7,0.585,CCS(=O)(=O)Nc1cc(-c2cccc(CN(C)CCN)c2)nc2c1cnn2C(C)C [Compound 111]
8,0.583,COc1cccc(-n2cnc3ccc(-c4ccc(CNCCN)cc4)cc32)c1 [Compound 110]
9,0.57,"CNCCN(C)Cc1cccc(-c2nc(N(C)C3CCOCC3)c3cnn(C4CC4)c3n2)c1 [Compound 109, N1-(3-(1-cyclopropyl-4-(methyl(tetrahydro-2H-pyran-4-yl)amino)-1H-pyrazolo[3,4-d]pyrimidin-6-yl)benzyl)-N1,N2-dimethylethane-1,2-diamine]"
10,0.568,CC(C)n1ncc2c(C(=O)NCC3CCOCC3)cc(-c3cccc(CN(C)CCN)c3)nc21 [Compound 108]
11,0.562,CC(C)n1ncc2c(NS(=O)(=O)N(C)C)cc(-c3cccc(CN(C)CCN)c3)nc21 [Compound 107]
12,0.517,CNCCN(C)Cc1cccc(-c2cc(N(C)C)c3cnn(C(C)C)c3n2)c1 [Compound 103]
13,0.492,CNCCN(C)Cc1cccc(-c2cc(OC3CCOC3)c3cnn(C(C)C)c3n2)c1 (centres unmarked) [Compound 102]
